According to US20250367229A1, “Treatment of Immune-Related Disorders, Kidney Disorders, Liver Disorders, Hemolytic Disorders, and Oxidative Stress-Associated Disorders Using NRH, NARH and Reduced Derivatives Thereof” (MitoPower LLC, priority 2021, published 2025):

Experiments:
CD4^+ T cells [1] = experiment: Cell death including apoptosis (annexin V, flow cytometry) of CD4+ T cells with depolarized mitochondria; type: cell-based, human; conditions: 250 μM, 24 hr, unstimulated or stimulated with anti-CD3 and anti-CD28 antibodies
Protocol: (§1) PBMCs (10^6 cells per test group) obtained from healthy human adult donors were unstimulated or stimulated with anti-CD3 and anti-CD28 antibodies to induce T-cell activation, in the absence or presence of 250 μM of NRH or NRH-triacetate (NRHTA). Measurements were made at 5, 15 and 24 hr after treatment.
(§2) After the indicated time of incubation, the PBMCs were stained with anti-CD3, anti-CD4 and anti-CD8 antibodies (Biolegend), JC-1 (1 μM, Thermo Fisher) and annexin V (Thermo Fisher) prior to analysis by flow cytometry. Annexin V binds to cell-surface phosphatidylserine, which is a marker for different forms of cell death including apoptosis and necrosis. The stained cells were re-suspended in phosphate-buffered saline (PBS) and acquired in a Cytek Aurora flow cytometer using a FlowJo software (v10) for analysis. About 200,000-300,000 cells were acquired in the flow cytometer for analysis. Standard procedures for spectral compensation were performed to obtain cell populations. Lymphocytes identified by forward and side scatter were gated to obtain CD3^+/CD4^+ and CD3^+/CD8^+ T-cell populations. Those T-cell populations were gated to identify the red and green signals for JC-1 aggregate and monomer, respectively, and annexin V. The percentage of cells staining green by JC-1 monomer was used to determine the percentage of cells with depolarized mitochondria. […]

HEK293 cells = experiment: NADH/NAD+ ratio in H2O2-exposed HEK293 cells (NAD/NADH-Glo); type: cell-based; conditions: NRH at 100 and 1000 μM, NR at all tested concentrations (0.01-1000 μM)
Protocol: HEK293 cells were trypsinized and plated at a density of 60,000 cells per well. The cells were then treated with H2O2 (600 μM prepared with Dulbecco's Modified Eagle Medium [DMEM]) for 30 min. The media was then replaced with serum media (DMEM supplemented with 10% fetal bovine serum [FBS]) containing NRH or NR, and were incubated at 37° C. under 6% CO2 for 30 min or 6 hr. The cells were incubated with the following concentrations of NRH or NR: 0.01, 0.1, 1.0, 10, 100 and 1000 μM. NAD^+ and NADH levels at 30 min and 6 hr were estimated using the NAD/NADH-Glo Promega Bioluminescent assay. The results were expressed as fold change relative to the values obtained with untreated cells.

CD8^+ T cells = experiment: Mitochondrial membrane depolarization (JC-1, flow cytometry) in CD8+ T cells; type: cell-based, human; conditions: 250 μM, 24 hr, unstimulated or stimulated with anti-CD3 and anti-CD28 antibodies
Protocol: as §1, §2

RBC hemoglobin = experiment: H2O2-induced oxidative changes of RBC hemoglobin in vitro (spectral scans); type: cell-based, human
Protocol: A 4 M stock solution of sodium azide was prepared. One mL of the 4 M stock azide solution was diluted with 9 mL of phosphate-buffered saline (PBS, pH 7.4) to obtain a 0.4 M stock solution, which was further diluted with PBS to obtain a 0.01 M working solution of sodium azide. Eight mL of whole blood was collected in buffered acid citrate dextrose tubes from a healthy human donor. PBS was added to 500 μL of whole blood. The samples were centrifuged, and then the supernatant from each tube was discarded to obtain a red blood cell (RBC) pellet. Ten μL of 0.01 M sodium azide working solution was added to 20 μL of RBC suspension. Twenty μL of hydrogen peroxide (H2O2) diluted in PBS was added to the RBC suspension to obtain final concentrations of H2O2 ranging from 0.01 mM to 100 mM. The samples were incubated at 37° C. for 1.5 hr. 950 μL of de-ionized water was added to the samples, which were then incubated for 10 min to lyse the RBCs and obtain hemoglobin upon centrifugation at 1,500 g. Spectral scans of the lysed samples between 200 nm and 1100 nm were obtained in 2 nm increments, using a Systronics® dual-beam UV-spectrophotometer and de-ionized water as a blank. Samples incubated with PBS at 37° C. for 1-1.5 hr were used as controls to establish the oxidative effects of H2O2 on RBC hemoglobin. Absorbance at 576 nm is a measure of hemoglobin concentration in a sample, and oxidation of hemoglobin to methemoglobin results in a drop in absorbance at 576 nm and an increase in absorbance at 630 nm. Fantao et al., Anal. Biochem., 521:11-19, (2017). Stock solutions of NRH (29.6 mM) and NR (18.3 mM) were prepared in 0.9% normal saline. Appropriate quantities of the stock NRH or NR solution and PBS were added to 500 μL of whole blood to obtain final concentrations of NRH or NR ranging from 1 μM to 1000 μM. The whole blood samples with NRH or NR were mixed gently and incubated at 37° C. for 1-1.5 hr. The samples were centrifuged, and then the supernatant was discarded to obtain an RBC pellet for each sample.

CD4^+ T cells [2] = experiment: Mitochondrial membrane depolarization (JC-1, flow cytometry) in CD4+ T cells; type: cell-based, human; conditions: 250 μM, 24 hr, unstimulated or stimulated with anti-CD3 and anti-CD28 antibodies
Protocol: as §1, §2

[3] = tested on: peripheral blood mononuclear cells (PBMCs); experiment: Extracellular acidification rate (ECAR, a measure of glycolysis) in activated PBMCs, Seahorse XF; type: cell-based, human; conditions: 250 μM, 4 hr, PBMCs stimulated with anti-CD3 and anti-CD28 antibodies
Protocol: PBMCs (1.5×10^6) obtained from a healthy human adult donor were unstimulated or stimulated with anti-CD3 and anti-CD28 antibodies (1 μg/mL each) to induce T-cell activation, in the absence or presence of 250 μM NRH for 4 hr. The cells were then washed and plated on poly-D-lysine-coated Seahorse XF microplates at a density of 3×10^5 cells per well (5 replicates). The plates were centrifuged briefly and incubated at 37° C. in a non-CO2 incubator for 30 min to settle the cells in the bottom of the plate. Extracellular acidification rate (ECAR, a measure of glycolysis) and oxygen consumption rate (OCR, a measure of oxidative phosphorylation) were determined using a Seahorse XF cell mito stress test kit and a Seahorse Xfe96 analyzer (Agilent Technologies, Santa Clara, California) under basal condition or in response to 1.0 μM oligomycin (an inhibitor of ATP synthase), 1.5 μM carbonyl cyanide-p-trifluoromethoxyphenylhydrazone (FCCP, a mitochondrial uncoupler), 0.5 μM rotenone (an inhibitor of electron transport at complex I) and antimycin A (an inhibitor of electron transport at cytochrome c reductase). PBMCs include monocytes and lymphocytes including T cells, B cells and natural killer cells.

## NC(=O)C1=CN([C@@H]2O[C@H](CO)[C@@H](O)[C@H]2O)C=CC1 [NRH, N-(β-D-ribofuranosyl)dihydronicotinamide]
CD4^+ T cells [1]
  cell death including apoptosis of CD4+ T cells with depolarized mitochondria: reduced cell death
HEK293 cells; 30 min of incubation
  NADH/NAD+ ratio in HEK293 cells exposed to H2O2: significantly increased
HEK293 cells; 6 hr of incubation
  NADH/NAD+ ratio in HEK293 cells exposed to H2O2: significantly increased
CD8^+ T cells
  mitochondrial membrane depolarization in CD8+ T cells: significantly induced
RBC hemoglobin; RBCs exposed to 1 mM H2O2, 1 μM or 100 μM NRH, NR data not shown
  A576/A630 ratio (a measure of the hemoglobin/methemoglobin ratio): restored
RBC hemoglobin; pre-incubation of RBCs with 1, 10 and 100 µM
  protection of hemoglobin from 1 mM H2O2-induced oxidative changes (amplitude of absorbance peaks at 576, 540, 434, 348 and 270 nm): protected hemoglobin
CD4^+ T cells [2]
  mitochondrial membrane depolarization in CD4+ T cells: significantly induced
[3]
  extracellular acidification rate (ECAR, a measure of glycolysis) in activated PBMCs: significantly reduced
